Measurements taken from the supplement of paper PMC10307832.

Legend:
Test in all cases: relative viability (nuclei count vs DMSO), 5 days (fraction); higher = more cells survive
[1] = compound: Nc1nc(Nc2ccc3c(c2)CC[C@@H](N2CCCC2)CC3)nn1-c1cc2c(nn1)-c1ccccc1CCC2 [Bemcentinib] + COc1cccc2cc(-c3nc([C@H]4CC[C@H](C(=O)O)CC4)n4ncnc(N)c34)[nH]c12 [OSI-027] (partner 0.5 µM)
Outline: (§1)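 Relative viability was taken as the ratio of nuclei in treated wells to nuclei in vehicle wells. Lung cancer cell lines in 1536-well plates received compounds by pin tool one day after seeding, either one drug alone or a fixed anchor-drug dose plus five library-drug doses (not always all listed) in √10 steps. Nuclei were counted on 4× images after 5 days of treatment, and values are medians of duplicate plates.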

[2] = compound: Nc1nc(Nc2ccc3c(c2)CC[C@@H](N2CCCC2)CC3)nn1-c1cc2c(nn1)-c1ccccc1CCC2 [Bemcentinib] + Nc1nc2[nH]cc(CCc3ccc(C(=O)N[C@@H](CCC(=O)O)C(=O)O)cc3)c2c(=O)[nH]1 [Pemetrexed] (partner 0.2 µM)
Outline: as §1

[3] = compound: CNC(=O)c1ccccc1Sc1ccc2c(/C=C/c3ccccn3)n[nH]c2c1 [Axitinib] + C[C@]1(O)C[C@@H](c2nc(-c3ccc4ccc(-c5ccccc5)nc4c3)c3c(N)nccn32)C1 [Linsitinib] (partner 1 µM)
Outline: as §1

[4] = compound: Nc1nc(Nc2ccc3c(c2)CC[C@@H](N2CCCC2)CC3)nn1-c1cc2c(nn1)-c1ccccc1CCC2 [Bemcentinib] + CCNC(=O)c1noc(-c2cc(C(C)C)c(O)cc2O)c1-c1ccc(CN2CCOCC2)cc1 [Luminespib] (partner 0.01 µM)
Outline: as §1

Row | Cell Line | relative viability ([1]; first compound 0.04 µM) | relative viability ([1]; first compound 0.1265 µM) | relative viability ([1]; first compound 0.4 µM) | relative viability ([1]; first compound 1.265 µM) | relative viability ([1]; first compound 4 µM) | relative viability ([2]; first compound 0.04 µM) | relative viability ([2]; first compound 0.1265 µM) | relative viability ([2]; first compound 0.4 µM) | relative viability ([2]; first compound 1.265 µM) | relative viability ([2]; first compound 4 µM) | relative viability ([3]; first compound 0.005 µM) | relative viability ([3]; first compound 0.01581 µM) | relative viability ([3]; first compound 0.05 µM) | relative viability ([3]; first compound 0.1581 µM) | relative viability ([3]; first compound 0.5 µM) | relative viability ([4]; first compound 0.04 µM) | relative viability ([4]; first compound 0.1265 µM) | relative viability ([4]; first compound 0.4 µM) | relative viability ([4]; first compound 1.265 µM) | relative viability ([4]; first compound 4 µM)
1 | NCI-H1651 | 0.771 | 0.811 | 0.738 | 0.741 | 0.74 | 0.548 | 0.592 | 0.646 | 0.475 | 0.614 | 1.08 | 0.895 | 0.914 | 0.964 | 1.23 | 0.967 | 0.757 | 1.05 | 0.79 | 0.977
2 | NCI-H1666 | 0.82 | 0.991 | 0.883 | 0.885 | 0.923 | 0.884 | 0.845 | 0.813 | 0.885 | 0.827 | 0.926 | 0.917 | 0.786 | 0.8 | 0.912 | 1.05 | 1.07 | 0.993 | 0.956 | 0.955
3 | NCI-H1734 | 0.643 | 0.66 | 0.552 | 0.583 | 0.591 | 0.419 | 0.459 | 0.398 | 0.402 | 0.448 | 1.05 | 0.829 | 0.977 | 0.903 | 1.04 | 0.178 | 0.192 | 0.219 | 0.218 | 0.188
4 | NCI-H1755 | 0.79 | 0.711 | 0.758 | 0.793 | 0.732 | 0.418 | 0.498 | 0.565 | 0.569 | 0.455 | 1.04 | 0.963 | 0.99 | 1.02 | 1.03 | 0.742 | 0.52 | 0.617 | 0.34 | 0.418
5 | NCI-H1792 | 0.85 | 0.884 | 0.881 | 1 | 0.768 | 0.918 | 0.988 | 1.06 | 0.68 | 0.85 | 0.575 | 0.629 | 0.527 | 0.557 | 0.504 | 0.578 | 0.482 | 0.64 | 0.489 | 0.486
6 | NCI-H1793 | 0.265 | 0.305 | 0.299 | – | 0.282 | 0.853 | 1.05 | 0.933 | 0.853 | 0.813 | 0.85 | 0.836 | 0.935 | 1.01 | 0.881 | 0.211 | 0.179 | 0.169 | – | 0.18
7 | NCI-H1915 | 0.625 | 0.661 | 0.635 | 0.59 | 0.696 | 0.48 | 0.533 | 0.538 | 0.489 | 0.443 | 1.03 | 1.12 | 1.09 | 1.13 | 1.13 | 0.861 | 0.974 | 0.9 | 0.899 | 0.89
8 | NCI-H1944 | 0.43 | 0.483 | 0.407 | 0.413 | 0.41 | 0.633 | 0.66 | 0.649 | 0.589 | 0.634 | 1.24 | 1.16 | 1.16 | 1.16 | 1.24 | 0.735 | 0.836 | 0.791 | 0.705 | 0.758
9 | NCI-H1975 | 0.719 | 0.82 | 0.737 | 0.795 | 0.772 | 0.307 | 0.362 | 0.301 | 0.283 | 0.299 | 1.17 | 1.1 | 1.09 | 0.988 | 1.18 | 0.162 | 0.216 | 0.249 | 0.187 | 0.204
10 | NCI-H1993 | 0.592 | 0.534 | 0.557 | 0.548 | 0.506 | 0.566 | 0.59 | 0.623 | 0.584 | 0.62 | 0.725 | 0.745 | 0.773 | 0.79 | 0.826 | 0.905 | 0.768 | 0.999 | 1.13 | 0.899
11 | NCI-H2009 | 0.626 | 0.743 | 0.684 | 0.709 | 0.665 | 1.03 | 1.07 | 1.12 | 1.07 | 1.01 | 1.23 | 1.18 | 1.21 | 1.28 | 1.36 | 1.07 | 1.04 | 1.13 | 0.997 | 1.03
12 | NCI-H2023 | 0.323 | 0.511 | 0.462 | 0.419 | 0.445 | 0.225 | 0.287 | 0.217 | 0.213 | 0.198 | 0.687 | 0.635 | 0.698 | 0.636 | 0.736 | 0.839 | 0.695 | 1.02 | 0.864 | 0.657
13 | NCI-H2085 | 0.722 | 0.945 | 0.764 | 0.686 | 0.752 | 0.857 | 0.945 | 0.861 | 0.876 | 0.714 | 1.02 | 1 | 0.845 | 0.794 | 1 | 0.447 | 0.448 | 0.435 | 0.471 | 0.449
14 | NCI-H2087 | 0.495 | 0.687 | 0.589 | 0.544 | 0.571 | 0.772 | 0.798 | 0.64 | 0.611 | 0.685 | 1.06 | 0.905 | 0.96 | 0.699 | 0.968 | 0.142 | 0.15 | 0.187 | 0.219 | 0.185
15 | NCI-H2126 | 0.679 | 0.692 | 0.756 | 0.688 | 0.683 | 0.732 | 0.671 | 0.713 | 0.646 | 0.831 | 0.696 | 0.724 | 0.728 | 0.667 | 0.676 | 0.893 | 0.973 | 0.81 | 0.975 | 0.939
16 | NCI-H2228 | 0.186 | 0.599 | 0.745 | 0.575 | 0.775 | 0.325 | 0.346 | 0.351 | 0.34 | 0.321 | 0.674 | 0.625 | 0.633 | 0.735 | 0.58 | 0.128 | 0.152 | 0.159 | 0.111 | 0.134
17 | NCI-H2347 | 0.413 | 0.454 | 0.386 | 0.429 | 0.422 | 0.558 | 0.457 | 0.428 | 0.434 | 0.437 | 1.07 | 0.929 | 1.08 | 1.07 | 0.914 | 0.631 | 0.438 | 0.866 | 0.5 | 0.417
18 | NCI-H2405 | 0.665 | 0.64 | 0.62 | 0.707 | 0.692 | 1.01 | 1.12 | 1.14 | 1.11 | 1.19 | 0.945 | 1 | 1.07 | 1 | 1.11 | 0.659 | 0.716 | 0.609 | 0.754 | 0.656
19 | NCI-H3122 | – | 1.08 | 0.978 | 1.11 | 0.983 | – | 0.222 | 0.213 | 0.194 | 0.2 | 1.02 | 0.991 | 1.05 | 1.05 | 1.07 | – | 0.0968 | 0.102 | 0.0892 | 0.0707
20 | PC-3 [JPC-3] | 0.765 | 0.727 | 0.829 | 0.739 | 0.752 | 1.12 | 1.32 | 1.28 | 1.07 | 1.07 | 0.948 | – | 0.972 | 0.944 | 0.986 | 0.722 | 0.695 | 0.712 | 0.69 | 0.674
21 | PC-14 | 0.84 | 1.08 | 0.938 | 0.953 | 0.81 | 0.131 | 0.13 | 0.139 | 0.141 | 0.124 | 1.07 | 0.895 | 1.03 | 0.945 | 0.944 | 0.132 | 0.137 | 0.186 | 0.159 | 0.132
22 | RERF-LC-KJ | 0.594 | 0.552 | 0.571 | 0.58 | 0.567 | 0.467 | 0.46 | 0.464 | 0.463 | 0.449 | 0.962 | 0.81 | 0.901 | 0.834 | 0.947 | 1.45 | 1.23 | 1.24 | 1.17 | 1.1
23 | SK-LU-1 | 0.37 | 0.382 | 0.35 | 0.369 | 0.331 | 1.02 | 1.04 | 1.08 | 1.08 | 0.984 | 1.25 | 1.28 | 1.18 | 1.17 | 1.36 | 0.204 | 0.202 | 0.196 | 0.192 | 0.198
24 | SK-MES-1 | 0.645 | 0.595 | 0.666 | 0.799 | 0.69 | 0.958 | 1.1 | 0.987 | 1.03 | 0.967 | 1.12 | 1.07 | 1.08 | 1.14 | 1.22 | 0.456 | 0.742 | 0.786 | 0.761 | 1.07
25 | SW 1573 | 0.609 | 0.731 | 0.677 | 0.589 | 0.661 | 0.944 | 0.865 | 0.89 | 0.839 | 0.725 | 0.911 | 0.855 | 0.899 | 0.8 | 0.84 | 0.203 | 0.185 | 0.212 | 0.152 | 0.215
26 | UMC-11 | 0.466 | 0.528 | 0.504 | 0.516 | 0.473 | 0.839 | 0.881 | 0.969 | 0.808 | 0.728 | 1.08 | 0.982 | 1.02 | 1.04 | 1.1 | 0.964 | 1.06 | 1.1 | 0.967 | 1.04
